Assay results: patent publication US11365187B2, “Pesticidally active pyrazole derivatives” (SYNGENTA PARTICIPATIONS AG, priority 2017, dated 2022)

How the values were obtained:
Assay type in all cases: in vivo
[1] = test system: Spodoptera littoralis (Egyptian cotton leaf worm); assay: Spodoptera littoralis feeding/contact activity on cotton leaf discs; details: foliar, 72 h
Procedure: Spodoptera littoralis (Egyptian cotton leaf worm): Feeding/contact activity
Cotton leaf discs were placed onto agar in 24-well microtiter plates and sprayed with aqueous test solutions prepared from 10′000 ppm DMSO stock solutions. After drying the leaf discs were infested with five L1 larvae. The samples were assessed for mortality 3 days after infestation. […] 2, 3, 4, 5, 6, 7, 8, 9, 10, 11, 12, 13, 14, 15, 16, 17, 18, 19, 20, 21, 22, 23, 24, 25, 26, 27, 28 and 29.

[2] = test system: Thrips tabaci (Onion thrips); assay: Thrips tabaci feeding/contact activity on sunflower leaf discs; details: foliar, 144 h
Procedure: Thrips tabaci (Onion thrips): Feeding/Contact activity
(§1) Sunflower leaf discs were placed on agar in 24-well microtiter plates and sprayed with aqueous test solutions prepared from 10′000 ppm DMSO stock solutions. After drying the leaf discs were infested with a thrips population of mixed ages. The samples were assessed for mortality 6 days after infestation.

[3] = test system: Euschistus heros (Neotropical Brown Stink Bug); assay: Euschistus heros feeding/contact activity on soybean leaves; details: 120 h
Procedure: Euschistus heros (Neotropical Brown Stink Bug): Feeding/contact activity
Soybean leaves on agar in 24-well microtiter plates were sprayed with aqueous test solutions prepared from 10′000 ppm DMSO stock solutions. After drying the leaves were infested with N2 nymphs. The samples were assessed for mortality 5 days after infestation.

[4] = test system: Myzus persicae (Green peach aphid); assay: Myzus persicae feeding/contact activity on sunflower leaf discs; details: foliar, 144 h
Procedure: Myzus persicae (Green peach aphid): Feeding/Contact activity
Sunflower leaf discs were placed onto agar in a 24-well microtiter plate and sprayed with aqueous test solutions prepared from 10′000 ppm DMSO stock solutions. After drying, the leaf discs were infested with an aphid population of mixed ages. The samples were assessed for mortality 6 days after infestation.

[5] = test system: Diabrotica balteata (Corn root worm); assay: Diabrotica balteata (Corn root worm) mortality on sprayed maize sprouts; details: 96 h
Procedure: Diabrotica balteata (Corn root worm):
Maize sprouts placed onto an agar layer in 24-well microtiter plates were treated with aqueous test solutions prepared from 10′000 ppm DMSO stock solutions by spraying. After drying, the plates were infested with L2 larvae (6 to 10 per well). The samples were assessed for mortality 4 days after infestation.

[6] = test system: Plutella xylostella (Diamond back moth); assay: Plutella xylostella feeding/contact activity on artificial diet; details: 120 h
Procedure: Plutella xylostella (Diamond back moth): Feeding/contact activity
24-well microtiter plates with artificial diet were treated with aqueous test solutions prepared from 10′000 ppm DMSO stock solutions by pipetting. After drying, the plates were infested with L2 larvae (10 to 15 per well). The samples were assessed for mortality 5 days after infestation.

[7] = test system: Tetranychus urticae (Two-spotted spider mite); assay: Tetranychus urticae feeding/contact activity on bean leaf discs; details: foliar, 192 h, read-out: mortality on mixed population (mobile stages)
Procedure: Tetranychus urticae (Two-spotted spider mite): Feeding/contact activity
as §1, with “Bean” for “Sunflower”, “discs” for “discs were placed”, “were” for “and”, “mite” for “thrips”, “on mixed population (mobile stages) 8” for “6”

Measured: mortality at 200 ppm

COC(=O)N(C(=O)c1cc(-c2cnn(-c3c(OC(F)F)c(C(F)(C(F)(F)F)C(F)(F)F)nn3C)c2)ccc1Cl)C1(C#N)CC1 [Example 18, methyl N-[2-chloro-5-[1-[4-(difluoromethoxy)-2-methyl-5-[1,2,2,2-tetrafluoro-1-(trifluoromethyl)ethyl]pyrazol-3-yl]pyrazol-4-yl]benzoyl]-N-(1-cyanocyclopropyl)carbamate]
≥ 80%: all assays above
